From US9738634B2, “Heterocyclic amide compound and herbicide” (SYNGENTA PARTICIPATIONS AG, priority 2013, dated 2017) come the findings set out here.

Holding throughout (type): in vivo
One data set relates to oval-leafed pondweed. Nature of the data set: Test Example 1: weedkilling efficacy, preemergent weed treatment in the submerged state; C: oval-leafed pondweed. The source says: (§1) Weedkilling efficacy test on preemergent weed treatment in the submerged state
(§2) Alluvial soil was introduced into 1/10,000 Are Wagner pots, and 4 cm depth submerged conditions were created by addition of water and mixing. Seeds of barnyard grass, bulrush and oval-leafed pondweed were mixed and sown into the aforesaid cups, then 2.5 leaf stage rice seedlings were transplanted. On the sowing day, emulsions of compounds of the present invention prepared according to compounding example 2 were diluted with water to give the specified dosages and applied onto the water surface. The plants were grown after placing the cups in a greenhouse at 25 to 30° C. 3 weeks after the pesticide treatment the effect on each type of plant was investigated on the basis of the following assessment criteria.
(§3) A: barnyard grass, B: bulrush, C: oval-leafed pondweed, D: crabgrass, E: green foxtail, F: barnyard grass, G: wild oat, H: black-grass, I: Italian ryegrass, J: common wind-grass, K: Indian mallow, L: redroot pigweed, M: fig-leafed goosefoot, N: chickweed, O: catchweed, p: birds-eye speedwell, a: transplanted rice, b: directly sown rice, c: corn, d: soybean, e: wheat, f: beet, g: rapeseed
(§4) Further, pesticide dosage (g/ha) indicates the concentration regulated such that treatment was with only the stated number of grams (g), when calculated per hectare (ha).

The subject of another data set is transplanted rice. Nature of the data set: Test Example 1: preemergent weed treatment in the submerged state, effect on crop; a: transplanted rice.
Source text: as §1, §2, §3, §4

Another data set relates to barnyard grass. Nature of the data set: Test Example 1: weedkilling efficacy, preemergent weed treatment in the submerged state; A: barnyard grass.
Source text: as §1, §2, §3, §4

The subject of a further data set is bulrush. Nature of the data set: Test Example 1: weedkilling efficacy, preemergent weed treatment in the submerged state; B: bulrush.
Source text: as §1, §2, §3, §4

As to `CC1=C(c2cncnc2)C(=O)N(C(C)(C)C(=O)Nc2cccc(Cl)n2)CO1` [B-2-22], in the data set with oval-leafed pondweed (treatment dosage 1000 g/ha), the “C (oval-leafed pondweed) weedkilling efficacy grade” value is 1 (weed kill ratio 5% or more, less than 20%). Besides, the “a (transplanted rice) effect on crop grade” value in the data set on transplanted rice (treatment dosage 1000 g/ha) is 0 (weed kill ratio 5% or less (practically no effect)). In the data set on barnyard grass (treatment dosage 1000 g/ha), the “A (barnyard grass) weedkilling efficacy grade” value is recorded as 3 (weed kill ratio 40% or more, less than 70%). The “B (bulrush) weedkilling efficacy grade” value in the data set with bulrush (treatment dosage 1000 g/ha) was 3 (weed kill ratio 40% or more, less than 70%).
On to `COc1ccnc(NC(=O)C(C)(C)N2COCN(c3ccccc3)C2=O)c1` [A-2-51], for which the “C: oval-leafed pondweed, weed kill grade” value in the data set on oval-leafed pondweed (treatment dosage 252 g/ha) was 2 (weed kill ratio 20% or more, less than 40%). The “a: transplanted rice, effect on crop grade” value (“a: transplanted rice, effect” for short) in the data set with transplanted rice (treatment dosage 252 g/ha) is recorded as 0 (weed kill ratio 5% or less (practically no effect)). In addition, the “A: barnyard grass, weed kill grade” value in the data set on barnyard grass (treatment dosage 252 g/ha) is given as 4 (weed kill ratio 70% or more, less than 90%). The “B: bulrush, weed kill grade” value with bulrush (treatment dosage 252 g/ha) is 5 (weed kill ratio 90% or more, (practically complete withering)).
`COC(=O)c1ccnc(NC(=O)C(C)(C)N2COCN(c3ccccc3)C2=O)c1` [A-2-47]: the “C: oval-leafed pondweed, weed kill grade” value in the data set with oval-leafed pondweed (treatment dosage 320 g/ha) was 0 (weed kill ratio 5% or less (practically no effect)). In the data set with transplanted rice (treatment dosage 320 g/ha), the “a: transplanted rice, effect” value is on record as 0 (weed kill ratio 5% or less (practically no effect)). In addition, the “A: barnyard grass, weed kill grade” value in the data set with barnyard grass (treatment dosage 320 g/ha) was 2 (weed kill ratio 20% or more, less than 40%). In addition, the “B: bulrush, weed kill grade” value with bulrush (treatment dosage 320 g/ha) is recorded as 4 (weed kill ratio 70% or more, less than 90%).
Regarding `COc1cc(C(F)(F)F)cc(NC(=O)C(C)(C)N2COCN(c3ccccc3)C2=O)n1` [A-2-59], the “C: oval-leafed pondweed, weed kill grade” value in the data set with oval-leafed pondweed (treatment dosage 320 g/ha) is reported as 5 (weed kill ratio 90% or more, (practically complete withering)). The “a: transplanted rice, effect” value in the data set on transplanted rice (treatment dosage 320 g/ha) is recorded as 1 (weed kill ratio 5% or more, less than 20%). Also, in the data set on barnyard grass (treatment dosage 320 g/ha), the “A: barnyard grass, weed kill grade” value is given as 5 (weed kill ratio 90% or more, (practically complete withering)). In the data set with bulrush (treatment dosage 320 g/ha), the “B: bulrush, weed kill grade” value was 5 (weed kill ratio 90% or more, (practically complete withering)).
As for `CC1=C(c2ccnc(F)c2)C(=O)N(C(C)(C)C(=O)Nc2cccc(Cl)n2)CO1` [B-2-21], the “C (oval-leafed pondweed) weedkilling efficacy grade” value with oval-leafed pondweed (treatment dosage 252 g/ha) was 3 (weed kill ratio 40% or more, less than 70%). In addition, the “a (transplanted rice) effect on crop grade” value with transplanted rice (treatment dosage 252 g/ha) is listed as 0 (weed kill ratio 5% or less (practically no effect)). Besides, the “A (barnyard grass) weedkilling efficacy grade” value in the data set with barnyard grass (treatment dosage 252 g/ha) is on record as 0 (weed kill ratio 5% or less (practically no effect)). For the same compound, the “B (bulrush) weedkilling efficacy grade” value in the data set on bulrush (treatment dosage 252 g/ha) is 5 (weed kill ratio 90% or more, (practically complete withering)).
For the compound `CC(C)(C(=O)Nc1nc(Cl)ccc1Cl)N1COCN(c2ccccc2)C1=O` [A-2-16], the “C: oval-leafed pondweed, weed kill grade” value in the data set with oval-leafed pondweed (treatment dosage 252 g/ha) is given as 2 (weed kill ratio 20% or more, less than 40%). Also, in the data set on transplanted rice (treatment dosage 252 g/ha), the “a: transplanted rice, effect” value was 0 (weed kill ratio 5% or less (practically no effect)). Besides, the “A: barnyard grass, weed kill grade” value in the data set on barnyard grass (treatment dosage 252 g/ha) was 0 (weed kill ratio 5% or less (practically no effect)). Besides, the “B: bulrush, weed kill grade” value in the data set on bulrush (treatment dosage 252 g/ha) is 5 (weed kill ratio 90% or more, (practically complete withering)).
For `Cc1cnc(Cl)c(NC(=O)C(C)(C)N2COCN(c3ccccc3)C2=O)c1` [A-3-09], the “C: oval-leafed pondweed, weed kill grade” value in the data set with oval-leafed pondweed (treatment dosage 252 g/ha) is 0 (weed kill ratio 5% or less (practically no effect)). The “a: transplanted rice, effect” value in the data set with transplanted rice (treatment dosage 252 g/ha) is recorded as 1 (weed kill ratio 5% or more, less than 20%). Also, the “A: barnyard grass, weed kill grade” value in the data set on barnyard grass (treatment dosage 252 g/ha) is listed as 2 (weed kill ratio 20% or more, less than 40%). In the data set on bulrush (treatment dosage 252 g/ha), the “B: bulrush, weed kill grade” value is reported as 4 (weed kill ratio 70% or more, less than 90%).
For the compound `COc1ccc(N2COCN(C(C)(C)C(=O)Nc3cc(C(F)(F)F)ccn3)C2=O)cc1Cl` [A-6-05], the “C: oval-leafed pondweed, weed kill grade” value in the data set with oval-leafed pondweed (treatment dosage 320 g/ha) is given as 2 (weed kill ratio 20% or more, less than 40%). In addition, the “a: transplanted rice, effect” value in the data set on transplanted rice (treatment dosage 320 g/ha) was 0 (weed kill ratio 5% or less (practically no effect)). Also, the “A: barnyard grass, weed kill grade” value with barnyard grass (treatment dosage 320 g/ha) was 2 (weed kill ratio 20% or more, less than 40%). Also, the “B: bulrush, weed kill grade” value in the data set on bulrush (treatment dosage 320 g/ha) is 2 (weed kill ratio 20% or more, less than 40%).
